{
  "source": "patent US8815902B2",
  "about": "“Tetrahydroquinoline amide M1 receptor positive allosteric modulators” (Merck Sharp & Dohme Corp., priority 2010, dated 2014)",
  "data": [
    {"target": "T1, acetylcholine muscarinic M1 receptor (hM1) (Homo sapiens, UniProt P11229)", "T1 construct": "expressed in transfected cells; host or cells: CHOnfat cells (CHO, NFAT reporter background), Geneticin-selected; b186 also calls them CHOK1/hM1", "T1 sequence (P11229 1-460)": "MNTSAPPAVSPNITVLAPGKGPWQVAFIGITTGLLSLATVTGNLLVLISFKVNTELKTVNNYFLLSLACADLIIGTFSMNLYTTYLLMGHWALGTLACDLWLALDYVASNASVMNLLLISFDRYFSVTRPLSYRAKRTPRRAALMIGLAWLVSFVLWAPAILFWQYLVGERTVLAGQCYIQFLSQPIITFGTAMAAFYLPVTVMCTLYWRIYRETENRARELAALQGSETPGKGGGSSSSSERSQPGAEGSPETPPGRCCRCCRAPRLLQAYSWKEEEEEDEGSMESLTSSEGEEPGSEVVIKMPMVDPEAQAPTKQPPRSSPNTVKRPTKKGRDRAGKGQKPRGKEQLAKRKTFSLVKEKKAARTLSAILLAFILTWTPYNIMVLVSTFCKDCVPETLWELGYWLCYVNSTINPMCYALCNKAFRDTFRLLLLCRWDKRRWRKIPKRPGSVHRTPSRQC", "test": "muscarinic FLIPR assay: intracellular calcium in CHOnfat/hM1 cells, potentiation of EC20 acetylcholine", "format": "cell-based", "details": "Table 1, EC20 acetylcholine (3 nM final), read-out: H Pot.", "protocol": "(§1) The assay studies the effect of one or several concentrations of test compounds on basal or acetylcholine-stimulated Ca^2+ levels using FLIPR.\n(§2) Compounds are prepared and subjected to a preincubation period of 4 min. Thereafter, a single EC20 concentration of acetylcholine is added to each well (3 nM final). The intracellular Ca^2+ level of each sample is measured and compared to an acetylcholine control to determine any modulatory activity.\n(§3) Cells: CHOnfat/hM1, hM2, hM3 or hM4 cells are plated 24 hr before the assay at a density of 18,000 cells/well (100 μL) in a 384 well plate. CHOnfat/hM1 and CHOnfat/hM3 Growth Medium: 90% DMEM (Hi Glucose); 10% HI FBS; 2 mM L-glutamine; 0.1 mM NEAA; Pen-Strep; and 1 mg/ml Geneticin, are added. For M2Gqi5CHOnfat and M4Gqi5CHOnfat cells, an additional 600 ug/ml hygromycin is added.\n(§4) Equipment: 384 well plate, 120 μL addition plate; 96-well Whatman 2 ml Uniplate Incubator, 37° C., 5% CO2; Skatron EMBLA-384 Plate Washer; Multimek Pipetting System; Genesis Freedom 200 System; Mosquito System; Temo Nanolitre Pipetting System; and FLIPR^384 Fluorometric Imaging Plate Reader System are used.\n(§5) Buffers. Assay Buffer: Hanks Balanced Salt Solution, with 20 mM Hepes, 2.5 mM Probenecid (Sigma P-8761) first dissolved in 1 N NaOH, 1% Bovine Serum Albumin (Sigma A-9647). Dye Loading Buffer: Assay Buffer plus 1% Fetal Bovine Serum and Fluo-4AM/Pluronic Acid Mixture. 2 mM Fluo-4AM ester stock in DMSO (Molecular Probes F-14202) Concentration of 2 μM in buffer for a final concentration of 1 μM in Assay. 20% Pluronic Acid Solution stock, with concentration of 0.04% in Buffer, 0.02% in Assay.\n(§6) 65 μL of 2 mM Fluo-4AM are mixed with 130 μL of 20% Pluronic Acid. The resulting solution and 650 μL FBS is added to the assay buffer for a total volume of 65 mL. Positive Controls: 4-Br-A23187: 10 mM in DMSO; final concentration 10 μM. Acetylcholine: 10 mM in water, working stock at both 20 μM and 30 μM in assay buffer, final concentration of 10 μM. This is used to check the maximum stimulation of the CHOK1/hM1 cells. 20 μM (2×) acetylcholine is added in the preincubation part of the assay, and the 30 μM (3×) stock is added in the second part. (EC20) Acetylcholine: 10 mM in water, working stock of 9 nM (3×), and final concentration in assay is 3 nM. This is used after the preincubation with test compounds. Addition of the EC20 Acetylcholine to each well with a test compound will ascertain any modulator activity. 24 wells contain 3 nM Acetylcholine alone as a control.\n(§7) Screening Plate Compounds are titrated in 96-well plates (columns 2-11), 100% DMSO, started at a concentration of 15 mM (150× stock concentration), and 3-fold serial dilutions using Genesis Freedom200 System. Four 96-well plates are combined into a 384-well plate using Mosquito Nanolitre Pipetting System by transferring 1 μl of serial diluted compounds to each well, and 1 mM acetylcholine (100× stock concentration) were added as a control. Using Temo, 49 μl assay buffer is added to each well of the 384-well plate right before assay.\n(§8) In a 96-well Whatman 2 ml Uniplate, 9 nM Acetylcholine (3×) is pipetted into wells corresponding to the screening compounds, and into control wells. The 30 μM acetylcholine control (3×) is added into control wells, and the 3× agonist plate is transferred into a 384 well plate.\n(§9) Cells are washed three times with 100 μL of buffer, leaving 30 μL of buffer in each well. Using Multimek, 30 μL of Dye Loading Buffer is added into each well and incubated at 37° C., 5% CO2 for up to one hr.\n(§10) After 60 min, the cells are washed three times with 100 μL of buffer, leaving 30 μL of buffer in each well. The cell plate, screening plate, and agonist addition plates are placed on the platform in the FLIPR and the door closed. A signal test to check background fluorescence and basal fluorescence signal is performed. Laser intensity is adjusted if necessary. […]", "units": {"EC50": "nM"}, "values": [
      {"smiles": "O=C(N[C@H]1CCCC[C@@H]1O)c1cc(Cc2ccc(Cl)nc2)c2c(n1)CCCC2", "note": "[Compound 7]", "EC50": 129},
      {"smiles": "COc1ccc(-c2ccc(Cc3cc(C(=O)N[C@H]4CCCC[C@@H]4O)nc4c3CCCC4)cn2)cn1", "note": "[Compound 8]", "EC50": 18},
      {"smiles": "O=C(N[C@H]1CCCC[C@@H]1O)c1cc(Cc2ccc(-c3cccnc3)nc2)c2c(n1)CCCC2", "note": "[Compound 9]", "EC50": 15},
      {"smiles": "O=C(N[C@H]1CCCC[C@@H]1O)c1cc(Cc2ccc(-c3ccc(F)nc3)nc2)c2c(n1)CCCC2", "note": "[Compound 10]", "EC50": 36},
      {"smiles": "O=C(N[C@H]1CCCC[C@@H]1O)c1cc(Cc2ccc(-c3ccccc3)nc2)c2c(n1)CCCC2", "note": "[Compound 11]", "EC50": 26},
      {"smiles": "COc1cc(Cc2cc(C(=O)N[C@H]3CCOC[C@@H]3O)nc3c2CCCC3)ccn1", "note": "[Compound 12]", "EC50": 120},
      {"smiles": "O=C(NC1CCOCC1O)c1cc(Cc2ccn3ccnc3c2)c2c(n1)CCCC2", "note": "(stereo not drawn) [Compound 13]", "EC50": 80},
      {"smiles": "O=C(N[C@H]1CCOC[C@@H]1O)c1cc(Cc2ccnc3ccccc23)c2c(n1)CCCC2", "note": "[Compound 14]", "EC50": 33},
      {"smiles": "O=C(N[C@H]1CCOC[C@@H]1O)c1cc(Cc2cnc3ccccc3c2)c2c(n1)CCCC2", "note": "[Compound 15]", "EC50": 11},
      {"smiles": "O=C(N[C@H]1CCOC[C@@H]1O)c1cc(Cc2ccc(-c3cccnc3)nc2)c2c(n1)CCCC2", "note": "[Compound 16]", "EC50": 11},
      {"smiles": "O=C(N[C@H]1CCOC[C@@H]1O)c1cc(Cc2ccc(-c3ccc(F)nc3)nc2)c2c(n1)CCCC2", "note": "[Compound 17]", "EC50": 15},
      {"smiles": "COc1cncc(-c2ccc(Cc3cc(C(=O)N[C@H]4CCOC[C@@H]4O)nc4c3CCCC4)cn2)c1", "note": "[Compound 18]", "EC50": 7},
      {"smiles": "O=C(N[C@H]1CCOC[C@@H]1O)c1cc(Cc2ccc(-c3cncc(F)c3)nc2)c2c(n1)CCCC2", "note": "[Compound 19]", "EC50": 23},
      {"smiles": "Cc1ccc(-c2ccc(Cc3cc(C(=O)N[C@H]4CCOC[C@@H]4O)nc4c3CCCC4)cn2)cn1", "note": "[Compound 20]", "EC50": 7},
      {"smiles": "Cc1cncc(-c2ccc(Cc3cc(C(=O)N[C@H]4CCOC[C@@H]4O)nc4c3CCCC4)cn2)c1", "note": "[Compound 21]", "EC50": 6},
      {"smiles": "COc1ccc(-c2ccc(Cc3cc(C(=O)N[C@H]4CCOC[C@@H]4O)nc4c3CCCC4)cn2)cn1", "note": "[Compound 22]", "EC50": 17},
      {"smiles": "CC(C)(C)OC(=O)N1CC=C(Cc2cc(C(=O)N[C@H]3CCOC[C@@H]3O)nc3c2CCCC3)CC1", "note": "[Compound 23]", "EC50": 620},
      {"smiles": "CC(=O)N1CCC(Cc2cc(C(=O)N[C@H]3CCOC[C@@H]3O)nc3c2CCCC3)CC1", "note": "[Compound 24]", "EC50": 2240}
    ]},
    {"target": "T1, acetylcholine muscarinic M1 receptor (hM1)", "test": "muscarinic FLIPR assay: intracellular calcium in CHOnfat/hM1 cells, potentiation of EC20 acetylcholine", "format": "cell-based", "details": "Table 2, EC20 acetylcholine (3 nM final), read-out: M1 IP (inflection point)", "protocol": "as §1, §2, §3, §4, §5, §6, §7, §8, §9, §10", "units": {"EC50": "nM"}, "values": [
      {"smiles": "O=C(N[C@H]1CCOC[C@@H]1O)c1cc(Cc2ccc(Cl)nc2)c2c(n1)CCCC2", "note": "[Example 1, 1,5-Anhydro-3[({4-[(6-chloropyridin-3-yl)methyl]-5,6,7,8-tetrahydroquinolin-2-yl}carbonyl)amino]-2,3-dideoxy-L-threo-pentitol]", "EC50": 102},
      {"smiles": "CSc1ccc(Cc2cc(C(=O)N[C@H]3CCCC[C@@H]3O)nc3c2CCCC3)cn1", "note": "[Example 2, N-[(1S,2S)-2-Hydroxycyclohexyl]-4-{[6-(methylsulfanyl)pyridin-3-yl]methyl}-5,6,7,8-tetrahydroquinoline-2-carboxamide]", "EC50": 88},
      {"smiles": "COc1ccc(Cc2cc(C(=O)N[C@H]3CCOC[C@@H]3O)nc3c2CCCC3)cn1", "note": "[Example 3, 1,5-Anhydro-2,3-dideoxy-3-[({4-[(6-methoxypyridin-3-yl)methyl]-5,6,7,8-tetrahydroquinolin-2-yl}carbonyl)amino]-L-threo-pentitol]", "EC50": 98},
      {"smiles": "CC(=O)N1CC=C(Cc2cc(C(=O)N[C@H]3CCOC[C@@H]3O)nc3c2CCCC3)CC1", "note": "[Example 4, 3-[{(4-[(1-Acetyl-1,2,3,6-tetrahydropyridin-4-yl)methyl]-5,6,7,8-tetrahydroquinolin-2-yl}carbonyl)amino]-1,5-anhydro-2,3-dideoxy-L-threo-pentitol]", "EC50": 654},
      {"smiles": "Cn1cc(-c2ccc(Cc3cc(C(=O)N[C@H]4CCOC[C@@H]4O)nc4c3CCCC4)cn2)cn1", "note": "[Example 5, 1,5-Anhydro-2,3-dideoxy-3-{[(4-{[6-(1-methyl-1H-pyrazol-4-yl)pyridine-3-yl]methyl}-5,6,7,8-tetrahydroquinolin-2-yl)carbonyl}amino]-L-threo-pentitol]", "EC50": 4},
      {"smiles": "O=C(N[C@H]1CCOC[C@@H]1O)c1cc(Cc2ccc(-c3cnccn3)nc2)c2c(n1)CCCC2", "note": "[Example 6, 1,5-Anhydro-2,3-dideoxy-3-{[(4-{[6-(pyrazin-2-yl)pyridine-3-yl]methyl}-5,6,7,8-tetrahydroquinolin-2-yl)carbonyl]amino}-L-threo-pentitol]", "EC50": 115}
    ]}
  ]
}
